Results reported in paper PMC10178421 (2023).

How the values were obtained:
[1] = system: CPG-tel26 (DNA, G4) TTAGGGTTAGGGTTAGGGTTAGGGTT; assay: G4-CPG affinity chromatography; settings: 50 mM KCl; 10% DMSO, 10% ethanol; 60 μM compound; error ±2%
[2] = system: CPG-c-myc (DNA, G4) TGGGGAGGGTGGGGAGGGTGGGGAAGGTGGGGA; assay: G4-CPG affinity chromatography; settings: 50 mM KCl; 10% DMSO, 10% ethanol; 60 μM compound; error ±2%
[3] = system: CPG-ds27 (DNA, hairpin) CGCGAATTCGCGTTTCGCGAATTCGCG; assay: G4-CPG affinity chromatography; settings: 50 mM KCl; 10% DMSO, 10% ethanol; 60 μM compound; error ±2%
[4] = system: tel26 (DNA, G4) TTAGGGTTAGGGTTAGGGTTAGGGTT; assay: fluorescence titration (ligand quenching); settings: 20 mM KCl, 5 mM potassium phosphate; pH 7, 20 °C; 2 μM ligand; independent equivalent-sites fit; average over multiple binding events
[5] = system: ds12 (DNA, duplex) CGCGAATTCGCG; assay: fluorescence titration (ligand quenching); settings: 20 mM KCl, 5 mM potassium phosphate; pH 7, 20 °C; 2 μM ligand; independent equivalent-sites fit; average over multiple binding events
[6] = system: Pu22 (DNA, G4) TGAGGGTGGGTAGGGTGGGTAA; assay: fluorescence titration (ligand quenching); settings: 20 mM KCl, 5 mM potassium phosphate; pH 7, 20 °C; 2 μM ligand; independent equivalent-sites fit; average over multiple binding events
[7] = system: Pu22 (DNA, G4) TGAGGGTGGGTAGGGTGGGTAA; assay: CD melting (265 nm); settings: no added metal cations; 10 mM Tris-HCl, pH 7; 2 μM DNA, 20 μM ligand (10 equiv)

SMILES	Bound Ligand (%) [1] [%]	Bound Ligand (%) [2] [%]	Bound Ligand (%) [3] [%]	Kb [4]	Kb [5]	Kb [6]	ΔTm [7]
C=Cc1c(C)c(O[C@@H]2O[C@H](CO)[C@@H](O)[C@H](O)[C@H]2O)cc2c1-c1ccc(O)c(C)c1CC2	0	3	0	–	–	–	–
C=Cc1c(C)c(O[C@H]2O[C@H](CO)[C@@H](O)[C@H](O)[C@H]2O)cc2c1-c1ccc(O)c(C)c1CC2	0	0	0	–	–	–	–
Cc1c(O)cc2c3c1CCc1cc(O[C@H]4O[C@H](CO)[C@@H](O)[C@H](O)[C@H]4O)c(C)c(c1-3)CC2	9	8	2	–	–	–	+4 °C

Now from value to compound:

Bound Ligand (%) [1] [%]	Bound Ligand (%) [2] [%]	Bound Ligand (%) [3] [%]	Kb [4]	Kb [5]	Kb [6]	ΔTm [7]	SMILES
0	0	0	–	–	–	–	C=CC12C(=O)C(C)(O)C(CC1c1cc(C)cc3c1-c1ccc(O)c(C)c1CC3)C1=C2c2ccc(OC)c(C)c2CC1 (stereo not shown)
48	56	38	–	–	–	–	C=CC12C(=O)C(C)(O)C3CC1c1c4c(cc(C)c1C31CCc3c(ccc(O)c3C)C21O)CCc1c-4ccc(O)c1C (stereo not shown)
19	18	0	(2.3 ± 0.9) × 10^6 M^-1	(6.0 ± 1.7) × 10^5 M^-1	(4.4 ± 0.7) × 10^5 M^-1	–	C=CC12C3=C(CCc4c3ccc(O)c4C)C(CC1c1cc(C)cc3c1-c1ccc(O)c(C)c1CC3)C(C)(O)C2O (stereo not shown)
2	4	0	–	–	–	–	C=Cc1c(C)c(O)cc2c1-c1ccc(O)c(C)c1CC2
